Reference: ChEMBL document CHEMBL1909514, “Imidazo[2,1-b]thiazole guanylhydrazones as RSK2 inhibitors” (Eur J Med Chem, 2011)
pIC50: −log10 of the molar value. The source made the active and inactive calls. How the calls were made is not given here.

How the values were obtained:
[1] = target: T1, Aurora kinase A (Homo sapiens) (UniProt O14965); assay: Inhibition of Aurora kinase A assessed as inhibition of substrate phosphorylation using fluorescent peptide substrate up to 100 uM by microplate reader assay
T1 sequence (whole entry): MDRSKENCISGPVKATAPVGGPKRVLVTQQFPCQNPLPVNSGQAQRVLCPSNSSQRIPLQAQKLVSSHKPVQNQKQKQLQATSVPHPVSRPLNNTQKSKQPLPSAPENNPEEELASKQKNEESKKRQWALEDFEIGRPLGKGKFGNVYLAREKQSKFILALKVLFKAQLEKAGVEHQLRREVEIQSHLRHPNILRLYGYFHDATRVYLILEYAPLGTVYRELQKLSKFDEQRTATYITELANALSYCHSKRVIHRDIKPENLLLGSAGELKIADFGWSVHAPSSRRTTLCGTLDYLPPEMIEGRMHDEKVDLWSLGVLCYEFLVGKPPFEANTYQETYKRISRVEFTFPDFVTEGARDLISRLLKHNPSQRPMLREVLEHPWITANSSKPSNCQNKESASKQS

[2] = target: Serine/threonine-protein kinase Chk2 (Homo sapiens, UniProt O96017)
Description: Inhibition of CHK2 assessed as inhibition of substrate phosphorylation using fluorescent peptide substrate by microplate reader assay

[3] = target: Ribosomal protein S6 kinase alpha-3 (Homo sapiens, UniProt P51812)
Description: Inhibition of RSK2 assessed as inhibition of substrate phosphorylation using fluorescent peptide substrate by microplate reader assay

[4] = target: T2, Serine/threonine-protein kinase Chk1 (Homo sapiens, UniProt O14757)
T2 sequence (O14757 whole entry): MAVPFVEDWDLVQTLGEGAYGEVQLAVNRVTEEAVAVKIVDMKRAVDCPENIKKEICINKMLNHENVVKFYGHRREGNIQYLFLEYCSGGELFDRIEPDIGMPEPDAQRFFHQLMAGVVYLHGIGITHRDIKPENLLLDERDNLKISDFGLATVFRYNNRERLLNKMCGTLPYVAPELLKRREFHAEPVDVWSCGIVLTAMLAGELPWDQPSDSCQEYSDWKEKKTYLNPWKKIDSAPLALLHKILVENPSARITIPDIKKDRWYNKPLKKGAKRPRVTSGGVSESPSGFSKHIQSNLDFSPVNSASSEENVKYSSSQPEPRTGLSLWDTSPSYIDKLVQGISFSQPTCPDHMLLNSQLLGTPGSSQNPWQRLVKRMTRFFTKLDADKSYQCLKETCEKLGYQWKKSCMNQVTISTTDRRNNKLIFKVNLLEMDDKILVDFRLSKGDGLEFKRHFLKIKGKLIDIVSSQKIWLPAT
Description: Inhibition of CHK1 assessed as inhibition of substrate phosphorylation using fluorescent peptide substrate by microplate reader assay

Sequence of Serine/threonine-protein kinase Chk2 (O96017 whole entry): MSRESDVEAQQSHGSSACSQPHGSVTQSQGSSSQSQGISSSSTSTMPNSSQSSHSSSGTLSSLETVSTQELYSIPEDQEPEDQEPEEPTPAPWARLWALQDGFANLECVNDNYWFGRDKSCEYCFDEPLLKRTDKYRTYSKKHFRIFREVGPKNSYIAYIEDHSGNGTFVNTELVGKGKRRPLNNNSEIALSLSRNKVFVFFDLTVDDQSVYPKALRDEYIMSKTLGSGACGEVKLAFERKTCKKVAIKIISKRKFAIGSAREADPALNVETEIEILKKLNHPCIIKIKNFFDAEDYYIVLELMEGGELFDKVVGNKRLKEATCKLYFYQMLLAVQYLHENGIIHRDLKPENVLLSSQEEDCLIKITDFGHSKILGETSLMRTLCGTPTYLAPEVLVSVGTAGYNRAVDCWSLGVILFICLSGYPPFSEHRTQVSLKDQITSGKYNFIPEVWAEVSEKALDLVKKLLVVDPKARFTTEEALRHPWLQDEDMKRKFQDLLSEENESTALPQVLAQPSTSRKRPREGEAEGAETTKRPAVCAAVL
Sequence of Ribosomal protein S6 kinase alpha-3 (P51812 whole entry): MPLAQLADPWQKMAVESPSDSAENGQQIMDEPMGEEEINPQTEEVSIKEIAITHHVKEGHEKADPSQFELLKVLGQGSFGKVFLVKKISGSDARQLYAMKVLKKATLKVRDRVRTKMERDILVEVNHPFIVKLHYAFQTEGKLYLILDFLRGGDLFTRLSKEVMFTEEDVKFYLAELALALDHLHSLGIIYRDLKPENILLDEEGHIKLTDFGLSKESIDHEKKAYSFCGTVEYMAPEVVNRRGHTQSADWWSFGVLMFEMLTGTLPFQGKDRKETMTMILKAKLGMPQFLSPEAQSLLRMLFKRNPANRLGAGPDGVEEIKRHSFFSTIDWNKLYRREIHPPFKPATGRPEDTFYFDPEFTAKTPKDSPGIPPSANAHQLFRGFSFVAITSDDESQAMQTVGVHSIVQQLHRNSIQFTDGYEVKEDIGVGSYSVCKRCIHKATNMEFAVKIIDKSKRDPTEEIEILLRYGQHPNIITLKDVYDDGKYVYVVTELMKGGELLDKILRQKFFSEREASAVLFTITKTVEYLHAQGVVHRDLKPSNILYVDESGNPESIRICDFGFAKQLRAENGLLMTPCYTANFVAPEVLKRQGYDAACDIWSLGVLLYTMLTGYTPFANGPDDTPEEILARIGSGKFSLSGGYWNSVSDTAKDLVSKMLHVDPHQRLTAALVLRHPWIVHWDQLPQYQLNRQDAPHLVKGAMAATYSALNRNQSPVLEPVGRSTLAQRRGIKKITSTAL

Row | SMILES | inhibition [1] | pIC50 [2] | pIC50 [3] | pIC50 [4]
1 | Fc1ccc(-c2cn3cc(Cl)sc3n2)cc1 | inactive | – | – | –
2 | O=Cc1c(-c2ccc(F)cc2)nc2sccn12 | inactive | – | – | –
3 | Cc1nn2c(/C=N/NC(=N)N)c(-c3ccc(Cl)c([N+](=O)[O-])c3)nc2s1 | – | 4.11 | 4.03 | –
4 | COc1cc([N+](=O)[O-])c(OC)cc1-c1nc2sc(Cl)cn2c1/C=N/NC(=N)N/N=C/c1c(-c2cc(OC)c([N+](=O)[O-])cc2OC)nc2sc(Cl)cn12 | – | < 4.00 | 4.94 | < 4.00
5 | O=Cc1c(-c2ccc(F)cc2)nc2sc(Cl)cn12 | inactive | – | – | –
6 | N=C(N)N/N=C/c1c(-c2ccc(Cl)c([N+](=O)[O-])c2)nc2ccccn12 | – | 4.10 | 5.54 | < 4.00
7 | Cc1cn2c(/C=N/NC(=N)N)c(-c3ccc(Cl)c([N+](=O)[O-])c3)nc2s1 | – | 4.19 | 5.42 | < 4.00
8 | Cc1nn2c(C=O)c(-c3cc(Cl)sc3Cl)nc2s1 | inactive | – | – | –
9 | O=Cc1c(-c2c(F)cccc2F)nc2sccn12 | inactive | – | – | –
10 | N=C(N)N/N=C\c1c(-c2c(F)cccc2F)nc2sccn12 | inactive | < 4.00 | < 4.00 | –
11 | O=[N+]([O-])c1ccc(-c2cn3cc(F)sc3n2)cc1 | inactive | – | – | –
12 | Cc1cn2c(/C=N/NC(=N)N)c(-c3cccc([N+](=O)[O-])c3)nc2s1 | – | 4.23 | 4.76 | < 4.00
13 | O=[N+]([O-])c1cccc(-c2cn3ccsc3n2)c1F | inactive | – | – | –
14 | Fc1ccccc1-c1cn2ccsc2n1 | inactive | – | – | –
15 | N=C(N)N/N=C\c1c(-c2cccc(C(F)(F)F)c2)nc2sccn12 | inactive | < 4.00 | < 4.00 | –
16 | Nc1nn2c(C=O)c(-c3ccccc3)nc2s1 | inactive | – | – | –
17 | O=Cc1c(-c2cc(F)c(F)cc2F)nc2sccn12 | inactive | – | – | –
18 | Cc1nn2c(/C=N/NC3=NCCN3)c(-c3ccc(Cl)c([N+](=O)[O-])c3)nc2s1 | inactive | < 4.70 | < 4.00 | –
19 | Clc1cc(-c2cn3ccccc3n2)c(Cl)s1 | inactive | – | – | –
20 | Cc1cn2c(C=O)c(-c3ccc(F)cc3)nc2s1 | inactive | – | – | –
21 | N=C(N)N/N=C/c1c(-c2ccccc2)nc2sc(Cl)cn12 | inactive | < 4.00 | < 4.00 | –
22 | O=Cc1c(-c2ccc([N+](=O)[O-])cc2)nc2sc(F)cn12 | inactive | – | – | –
23 | O=Cc1c(-c2ccc(F)c(F)c2)nc2sccn12 | inactive | – | – | –
24 | COc1cc([N+](=O)[O-])c(OC)cc1-c1nc2sc(C)nn2c1C=O | inactive | – | – | –
25 | N=C(N)N/N=C/c1c(-c2ccc(N)cc2)nc2sccn12 | – | 4.17 | 5.52 | < 4.00
26 | Fc1cc(F)c(-c2cn3ccsc3n2)cc1F | inactive | – | – | –

Row | SMILES | inhibition [1] | pIC50 [2] | pIC50 [3] | pIC50 [4]
27 | CCCc1cn2c(/C=N/NC(=N)N)c(-c3cc([N+](=O)[O-])c(Cl)cc3Cl)nc2s1 | – | < 4.00 | 5.22 | < 4.00
28 | Cc1sc2nc(-c3cc([N+](=O)[O-])c(Cl)cc3Cl)c(/C=N/NC(=N)N)n2c1C | – | < 4.00 | 4.01 | –
29 | Clc1cc(-c2cn3c(n2)sc2ccccc23)c(Cl)s1 | inactive | – | – | –
30 | Cc1cn2c(/C=N/NC3=NCCN3)c(-c3ccc(Cl)c([N+](=O)[O-])c3)nc2s1 | – | < 4.00 | 4.69 | < 4.00
31 | N=C(N)N/N=C/c1c(-c2ccc([N+](=O)[O-])cc2)nc2sccn12 | – | < 4.00 | 5.25 | < 4.00
32 | COc1cc([N+](=O)[O-])c(OC)cc1-c1nc2ccccn2c1C=O | inactive | – | – | –
33 | Clc1cc(-c2nc3sc(Cl)cn3c2/C=N/NC2=NCCN2)c(Cl)s1 | inactive | < 4.70 | < 4.00 | –
34 | N=C(N)N/N=C\c1c(-c2ccccc2F)nc2sccn12 | inactive | < 4.00 | < 4.00 | –
35 | N=C(N)N/N=C/c1c(-c2cc(Cl)sc2Cl)nc2sccn12 | – | 4.19 | 4.10 | < 4.00
36 | O=Cc1c(-c2cc(Cl)sc2Cl)nc2sc3ccccc3n12 | inactive | – | – | –
37 | Cc1nn2cc(-c3cc(Cl)sc3Cl)nc2s1 | inactive | – | – | –
38 | N=C(N)N/N=C\c1c(-c2ccccc2)nc2sc(N)nn12 | inactive | – | – | –
39 | Fc1cccc(F)c1-c1cn2ccsc2n1 | inactive | – | – | –
40 | Cc1cn2c(/C=N/NC(=N)N)c(-c3cc([N+](=O)[O-])c(Cl)cc3Cl)nc2s1 | – | < 4.00 | 5.34 | < 4.00
41 | N=C(N)N/N=C\c1c(-c2ccc(F)c(F)c2)nc2sccn12 | inactive | < 4.00 | < 4.00 | –
42 | N=C(N)N/N=C/c1c(-c2ccc(Cl)cc2)nc2sc(Cl)cn12 | – | 4.31 | 4.85 | < 2.10
43 | O=Cc1c(-c2cc(Cl)sc2Cl)nc2ccccn12 | inactive | – | – | –
44 | O=[N+]([O-])c1cc(-c2cn3cc(Cl)sc3n2)ccc1F | inactive | – | – | –
45 | O=[N+]([O-])c1cc(-c2cn3ccsc3n2)ccc1F | inactive | – | – | –
46 | Clc1cc(-c2cn3cc(Cl)sc3n2)c(Cl)s1 | inactive | – | – | –
47 | N=C(N)N/N=C\c1c(-c2cc(F)c(F)cc2F)nc2sccn12 | inactive | < 4.00 | < 4.00 | –
48 | N#Cc1ccc(-c2cn3cc(Cl)sc3n2)cc1 | inactive | – | – | –
49 | N=C(N)N/N=C/c1c(-c2ccc(Cl)c([N+](=O)[O-])c2)nc2sc3ccccc3n12 | – | < 4.00 | 5.14 | < 4.00
50 | O=Cc1c(-c2ccc(F)c([N+](=O)[O-])c2)nc2sccn12 | inactive | – | – | –
51 | Cc1sc2nc(-c3ccc(Cl)c([N+](=O)[O-])c3)c(/C=N/NC(=N)N)n2c1C | – | 4.31 | 4.86 | < 4.00
52 | Cc1csc2nc(-c3cccnc3)c(/C=N/NC(=N)N)n12 | – | 4.46 | 4.00 | < 4.00

Row | SMILES | inhibition [1] | pIC50 [2] | pIC50 [3] | pIC50 [4]
53 | CCCc1cn2c(/C=N/NC(=N)N)c(-c3ccc(Cl)c([N+](=O)[O-])c3)nc2s1 | – | 4.04 | 5.19 | < 4.00
54 | O=Cc1c(-c2cccc([N+](=O)[O-])c2F)nc2sccn12 | inactive | – | – | –
55 | COc1cc([N+](=O)[O-])c(OC)cc1-c1cn2c(n1)sc1ccccc12 | inactive | – | – | –
56 | O=Cc1c(-c2ccc([N+](=O)[O-])cc2)nc2sc(Br)cn12 | inactive | – | – | –
57 | N=C(N)N/N=C/c1c(-c2cc(Cl)sc2Cl)nc2ccccn12 | inactive | < 4.70 | < 4.00 | –
58 | O=Cc1c(-c2ccc(F)c([N+](=O)[O-])c2)nc2sc(Cl)cn12 | inactive | – | – | –
59 | Clc1cc(-c2nc3sc4ccccc4n3c2/C=N/NC2=NCCN2)c(Cl)s1 | inactive | < 4.00 | < 4.00 | –
60 | O=[N+]([O-])c1ccc(-c2cn3cc(Br)sc3n2)cc1 | inactive | – | – | –
61 | Cc1cn2cc(-c3ccc(F)c([N+](=O)[O-])c3)nc2s1 | inactive | – | – | –
62 | O=Cc1c(-c2ccccc2F)nc2sccn12 | inactive | – | – | –
63 | COc1cc([N+](=O)[O-])c(OC)cc1-c1cn2ccccc2n1 | inactive | – | – | –
64 | COc1cc([N+](=O)[O-])c(OC)cc1-c1cn2nc(C)sc2n1 | inactive | – | – | –
65 | N=C(N)N/N=C\c1c(-c2cccc([N+](=O)[O-])c2F)nc2sccn12 | inactive | < 4.00 | < 4.00 | –
66 | Cc1nn2c(/C=N/NC(=N)N)c(-c3cc(Cl)sc3Cl)nc2s1 | inactive | < 4.70 | < 4.00 | –
67 | O=Cc1c(-c2ccc(Br)c([N+](=O)[O-])c2)nc2sccn12 | inactive | – | – | –
68 | Clc1cc(-c2nc3ccccn3c2/C=N/NC2=NCCN2)c(Cl)s1 | inactive | < 4.70 | < 4.00 | –
69 | N#Cc1ccc(-c2nc3sc(Cl)cn3c2C=O)cc1 | inactive | – | – | –
70 | COc1cc([N+](=O)[O-])c(OC)cc1-c1nc2sc3ccccc3n2c1C=O | inactive | – | – | –
71 | O=[N+]([O-])c1cc(-c2cn3ccsc3n2)ccc1Br | inactive | – | – | –
72 | O=Cc1c(-c2cc(Cl)sc2Cl)nc2sc(Cl)cn12 | inactive | – | – | –
73 | Cc1cn2c(C=O)c(-c3ccc(F)c([N+](=O)[O-])c3)nc2s1 | inactive | – | – | –
74 | Cc1cn2cc(-c3ccc(F)cc3)nc2s1 | inactive | – | – | –
75 | Fc1ccc(-c2cn3ccsc3n2)cc1F | inactive | – | – | –
76 | COc1cc([N+](=O)[O-])c(OC)cc1-c1nc2sc(C)nn2c1/C=N\NC(=N)N | inactive | < 4.70 | < 4.00 | –
